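Five compound concentrations were applied to cells in 96-well plates for 48 hours; endpoints were derived by simple linear interpolation of the resulting dose-response curve. GI50: concentration for 50% inhibition of growth. TGI marks complete inhibition of growth.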
Experiments:
Experiment in all cases: DTP human tumour cell line panel, 48 h
786-0 renal = system: 786-0 renal
A498 renal = system: A498 renal
A549 NSCLC = system: A549 NSCLC
ACHN renal = system: ACHN renal
BT-549 breast = system: BT-549 breast
CAKI-1 renal = system: CAKI-1 renal
CCRF-CEM leukemia = system: CCRF-CEM leukemia
COLO 205 colon = system: COLO 205 colon
DU-145 prostate = system: DU-145 prostate
EKVX NSCLC = system: EKVX NSCLC
HCC-2998 colon = system: HCC-2998 colon
HCT-116 colon = system: HCT-116 colon
HCT-15 colon = system: HCT-15 colon
HL-60(TB) leukemia = system: HL-60(TB) leukemia
HOP-62 NSCLC = system: HOP-62 NSCLC
HOP-92 NSCLC = system: HOP-92 NSCLC
HS 578T breast = system: HS 578T breast
HT29 colon = system: HT29 colon
IGROV1 ovarian = system: IGROV1 ovarian
K-562 leukemia = system: K-562 leukemia
KM12 colon = system: KM12 colon
LOX IMVI melanoma = system: LOX IMVI melanoma
M14 melanoma = system: M14 melanoma
MALME-3M melanoma = system: MALME-3M melanoma
MCF7 breast = system: MCF7 breast
MDA-MB-231 breast = system: MDA-MB-231 breast
MDA-MB-435 = system: MDA-MB-435
MOLT-4 leukemia = system: MOLT-4 leukemia
NCI-H226 lung = system: NCI-H226 lung
NCI-H23 lung = system: NCI-H23 lung
NCI-H460 lung = system: NCI-H460 lung
NCI-H522 lung = system: NCI-H522 lung
NCI/ADR-RES ovarian = system: NCI/ADR-RES ovarian
OVCAR-3 ovarian = system: OVCAR-3 ovarian
OVCAR-4 ovarian = system: OVCAR-4 ovarian
OVCAR-5 ovarian = system: OVCAR-5 ovarian
OVCAR-8 ovarian = system: OVCAR-8 ovarian
PC-3 prostate = system: PC-3 prostate
RPMI-8226 leukemia = system: RPMI-8226 leukemia
RXF 393 renal = system: RXF 393 renal
SF-268 CNS = system: SF-268 CNS
SF-295 CNS = system: SF-295 CNS
SF-539 CNS = system: SF-539 CNS
SK-MEL-2 melanoma = system: SK-MEL-2 melanoma
SK-MEL-28 melanoma = system: SK-MEL-28 melanoma
SK-MEL-5 melanoma = system: SK-MEL-5 melanoma
SK-OV-3 ovarian = system: SK-OV-3 ovarian
SN12C renal = system: SN12C renal
SNB-19 CNS = system: SNB-19 CNS
SNB-75 CNS = system: SNB-75 CNS
SR leukemia = system: SR leukemia
SW-620 colon = system: SW-620 colon
T-47D breast = system: T-47D breast
TK-10 renal = system: TK-10 renal
U251 CNS = system: U251 CNS
UACC-257 melanoma = system: UACC-257 melanoma
UACC-62 melanoma = system: UACC-62 melanoma
UO-31 renal = system: UO-31 renal
MDA-N = system: MDA-N

Compound: CC[C@@H](C(=O)[C@H](C)[C@H](O)[C@@H](C)[C@H]1O[C@H]([C@@H](CC)C(=O)O)CC[C@H]1C)C1O[C@]2(C=C[C@@H](O)[C@]3(CC[C@@](C)([C@H]4CC[C@](O)(CC)[C@H](C)O4)O3)O2)[C@H](C)C[C@@H]1C (some centres not stated)
- GI50 (786-0 renal): 1.26 µM
- TGI (786-0 renal): 21.2 µM
- GI50 (A498 renal): 0.044 µM
- TGI (A498 renal): 0.48 µM
- GI50 (A549 NSCLC): 0.267 µM
- TGI (A549 NSCLC): 21.6 µM
- GI50 (ACHN renal): 0.77 µM
- TGI (ACHN renal): 40.2 µM
- GI50 (BT-549 breast): 0.239 µM
- TGI (BT-549 breast): 8.63 µM
- GI50 (CAKI-1 renal): 0.637 µM
- TGI (CAKI-1 renal): 13.9 µM
- GI50 (CCRF-CEM leukemia): 0.283 µM
- TGI (CCRF-CEM leukemia): 12.3 µM
- GI50 (COLO 205 colon): 0.203 µM
- TGI (COLO 205 colon): 4.68 µM
- GI50 (DU-145 prostate): 1.06 µM
- TGI (DU-145 prostate): 29.3 µM
- GI50 (EKVX NSCLC): 0.362 µM
- TGI (EKVX NSCLC): 17.5 µM
- GI50 (HCC-2998 colon): 0.178 µM
- TGI (HCC-2998 colon): 11.9 µM
- GI50 (HCT-116 colon): 0.722 µM
- TGI (HCT-116 colon): 35.7 µM
- GI50 (HCT-15 colon): 0.639 µM
- TGI (HCT-15 colon): 26.5 µM
- GI50 (HL-60(TB) leukemia): 0.06 µM
- TGI (HL-60(TB) leukemia): 0.506 µM
- GI50 (HOP-62 NSCLC): 0.532 µM
- TGI (HOP-62 NSCLC): 21.6 µM
- GI50 (HOP-92 NSCLC): 0.69 µM
- TGI (HOP-92 NSCLC): 5.78 µM
- GI50 (HS 578T breast): 0.239 µM
- TGI (HS 578T breast): 18.4 µM
- GI50 (HT29 colon): 0.357 µM
- TGI (HT29 colon): 30.2 µM
- GI50 (IGROV1 ovarian): 2.07 µM
- TGI (IGROV1 ovarian): > 100 µM
- GI50 (K-562 leukemia): 0.223 µM
- TGI (K-562 leukemia): 7.06 µM
- GI50 (KM12 colon): 0.723 µM
- TGI (KM12 colon): 12.9 µM
- GI50 (LOX IMVI melanoma): 0.706 µM
- TGI (LOX IMVI melanoma): 6.56 µM
- GI50 (M14 melanoma): 1.13 µM
- TGI (M14 melanoma): 2.89 µM
- GI50 (MALME-3M melanoma): 0.241 µM
- TGI (MALME-3M melanoma): 1.35 µM
- GI50 (MCF7 breast): 0.148 µM
- TGI (MCF7 breast): 11.9 µM
- GI50 (MDA-MB-231 breast): 0.586 µM
- TGI (MDA-MB-231 breast): 6.71 µM
- GI50 (MDA-MB-435): 1.08 µM
- TGI (MDA-MB-435): 2.56 µM
- GI50 (MOLT-4 leukemia): 1.26 µM
- TGI (MOLT-4 leukemia): 4.75 µM
- GI50 (NCI-H226 lung): 0.598 µM
- TGI (NCI-H226 lung): 5.83 µM
- GI50 (NCI-H23 lung): 0.296 µM
- TGI (NCI-H23 lung): 7.24 µM
- GI50 (NCI-H460 lung): 0.4 µM
- TGI (NCI-H460 lung): 10.3 µM
- GI50 (NCI-H522 lung): 0.0961 µM
- TGI (NCI-H522 lung): 2.51 µM
- GI50 (NCI/ADR-RES ovarian): 0.562 µM
- TGI (NCI/ADR-RES ovarian): > 68.2 µM
- GI50 (OVCAR-3 ovarian): 0.0842 µM
- TGI (OVCAR-3 ovarian): 18.8 µM
- GI50 (OVCAR-4 ovarian): 0.821 µM
- TGI (OVCAR-4 ovarian): 44.8 µM
- GI50 (OVCAR-5 ovarian): 1.07 µM
- TGI (OVCAR-5 ovarian): 69.2 µM
- GI50 (OVCAR-8 ovarian): 1.6 µM
- TGI (OVCAR-8 ovarian): > 100 µM
- GI50 (PC-3 prostate): 0.0692 µM
- TGI (PC-3 prostate): 49 µM
- GI50 (RPMI-8226 leukemia): 0.171 µM
- TGI (RPMI-8226 leukemia): 3.07 µM
- GI50 (RXF 393 renal): 0.0621 µM
- TGI (RXF 393 renal): 1.47 µM
- GI50 (SF-268 CNS): 1.14 µM
- TGI (SF-268 CNS): 16.2 µM
- GI50 (SF-295 CNS): 0.474 µM
- TGI (SF-295 CNS): 5.54 µM
- GI50 (SF-539 CNS): 0.328 µM
- TGI (SF-539 CNS): 4.05 µM
- GI50 (SK-MEL-2 melanoma): 1.27 µM
- TGI (SK-MEL-2 melanoma): 4.5 µM
- GI50 (SK-MEL-28 melanoma): 0.84 µM
- TGI (SK-MEL-28 melanoma): 2.09 µM
- GI50 (SK-MEL-5 melanoma): 0.102 µM
- TGI (SK-MEL-5 melanoma): 0.274 µM
- GI50 (SK-OV-3 ovarian): 4.1 µM
- TGI (SK-OV-3 ovarian): 51.1 µM
- GI50 (SN12C renal): 0.159 µM
- TGI (SN12C renal): 16.4 µM
- GI50 (SNB-19 CNS): 0.204 µM
- TGI (SNB-19 CNS): 4.25 µM
- GI50 (SNB-75 CNS): 0.777 µM
- TGI (SNB-75 CNS): 4.63 µM
- GI50 (SR leukemia): 0.0827 µM
- TGI (SR leukemia): 5.73 µM
- GI50 (SW-620 colon): 0.966 µM
- TGI (SW-620 colon): 10.7 µM
- GI50 (T-47D breast): 0.125 µM
- TGI (T-47D breast): 16.7 µM
- GI50 (TK-10 renal): 1.68 µM
- TGI (TK-10 renal): 83.1 µM
- GI50 (U251 CNS): 0.113 µM
- TGI (U251 CNS): 11.5 µM
- GI50 (UACC-257 melanoma): 0.23 µM
- TGI (UACC-257 melanoma): 6.98 µM
- GI50 (UACC-62 melanoma): 1.05 µM
- TGI (UACC-62 melanoma): 2.28 µM
- GI50 (UO-31 renal): 1.42 µM
- TGI (UO-31 renal): 23.9 µM

Compound: CCOP(=O)(Nc1ccccc1P(=O)(OCC)OCC)OCC
- TGI (786-0 renal): > 100 µM
- TGI (A498 renal): > 100 µM
- TGI (A549 NSCLC): > 100 µM
- TGI (ACHN renal): > 100 µM
- TGI (BT-549 breast): > 100 µM
- TGI (CAKI-1 renal): > 100 µM
- TGI (COLO 205 colon): > 100 µM
- TGI (DU-145 prostate): > 100 µM
- TGI (EKVX NSCLC): > 100 µM
- TGI (HCC-2998 colon): > 100 µM
- TGI (HCT-116 colon): > 100 µM
- TGI (HCT-15 colon): > 100 µM
- TGI (HOP-62 NSCLC): > 100 µM
- TGI (HOP-92 NSCLC): > 100 µM
- TGI (HS 578T breast): > 100 µM
- TGI (HT29 colon): > 100 µM
- TGI (IGROV1 ovarian): > 100 µM
- TGI (K-562 leukemia): > 100 µM
- TGI (KM12 colon): > 100 µM
- TGI (M14 melanoma): > 100 µM
- TGI (MALME-3M melanoma): > 100 µM
- TGI (MCF7 breast): > 100 µM
- TGI (MDA-MB-231 breast): > 100 µM
- TGI (MDA-MB-435): > 100 µM
- TGI (MDA-N): > 100 µM
- TGI (MOLT-4 leukemia): > 100 µM
- TGI (NCI-H23 lung): > 100 µM
- TGI (NCI-H460 lung): > 100 µM
- TGI (NCI-H522 lung): > 100 µM
- TGI (NCI/ADR-RES ovarian): > 100 µM
- TGI (OVCAR-3 ovarian): > 100 µM
- TGI (OVCAR-4 ovarian): > 100 µM
- TGI (OVCAR-5 ovarian): > 100 µM
- TGI (OVCAR-8 ovarian): > 100 µM
- TGI (PC-3 prostate): > 100 µM
- TGI (RPMI-8226 leukemia): > 100 µM
- TGI (RXF 393 renal): > 100 µM
- TGI (SF-268 CNS): > 100 µM
- TGI (SF-295 CNS): > 100 µM
- TGI (SK-MEL-2 melanoma): > 100 µM
- TGI (SK-MEL-28 melanoma): > 100 µM
- TGI (SK-MEL-5 melanoma): > 100 µM
- TGI (SK-OV-3 ovarian): > 100 µM
- TGI (SNB-19 CNS): > 100 µM
- TGI (SNB-75 CNS): > 100 µM
- TGI (SW-620 colon): > 100 µM
- TGI (TK-10 renal): > 100 µM
- TGI (U251 CNS): > 100 µM
- TGI (UACC-257 melanoma): > 100 µM
- TGI (UACC-62 melanoma): > 100 µM
- TGI (UO-31 renal): > 100 µM

Source: PubChem BioAssay (NCI)
